Patent publication US7949164B2, “Lung cancer diagnosis using magnetic resonance imaging data obtained at three time points” (Yeda Research & Development Co. Ltd., priority 2005, dated 2011)

Legend:
[1] = Contrast agent pharmacokinetics in plasma: bi-exponential fit of DCE-MRI signal enhancement curves (heart ventricle / great vessels) after bolus injection; type: in vivo; conditions: nude rats, bolus into tail vein, dose 0.1 mmol/kg wt
Experimental: Enhancement, E(t), is defined as the difference in signal intensities before and after contrast material injection: E(t)=[I(t)−I(t0)]/I(t0) Eq. (1) where I designates signal intensity. Assuming similar pharmacokinetics for all patients with normal kidney function, Cp(t) in ml contrast agent per liter blood may be given by the equation: Cp(t)=D(a1e^−m1^t+a2e^−m2^t) D=dose in ml/kg Eq. (2)
To determine contrast agent pharmacokinetics, GdDTPA was injected as a bolus into the tail of the rats at a dose of 0.1 mmol/kg. Changes in the bolus concentration of the contrast agent after injection were monitored by fitting the signal enhancement curves of the in vivo DCE-MRI studies, of regions of interest at the heart ventricle or in one of the great vessels, to a bi-exponential decay. Similar values were previously derived by measurements of blood samples taken after the bolus injection.
The time-dependent changes in signal enhancement were processed pixel-by-pixel using Tofts' physiological model, the contrast agent pharmacokinetics and pre-contrast T1 values (Table 1), and the calibration algorithms herein described.

[2] = listed under H460 NSCLC tumor tissue; Furman-Haran, 1997; cited from earlier work

**Q.** Which results are given for `O=C([O-])CN(CCN(CC(=O)[O-])CC(=O)O)CCN(CC(=O)[O-])CC(=O)O.[Gd+3]` [Gd-DTPA, Gadolinium-diethylene triamino pentaacetic acid]?
**A.** a1, Amplitude of fast decay [1]: 9.44 kg/L; a2, Amplitude of slow decay [1]: 3.99 kg/L; m1, Fast decay time constant [1]: 0.75 min⁻¹; m2, Slow decay time constant [1]: 0.033 min⁻¹; R1, T1 relaxivity [2]: 4.2 {Furman- s^−1mM^−1
